Results from ChEMBL document CHEMBL4619785, “Advantages of the Parent Nucleoside GS-441524 over Remdesivir for Covid-19 Treatment” (ACS Med Chem Lett, 2020).

Experiments:
Feline coronavirus = assay: Antiviral activity against Feline corona virus infected in CRFK cells; format: functional, organism-based; conditions: Alphacoronavirus 1, CRFK
[1] = Cytotoxic activity in HAE cells; format: cell-based; conditions: human
[2] = test system: Middle East respiratory syndrome-related coronavirus; assay: Antiviral activity against Middle East respiratory syndrome coronavirus infected in primary HAE cells; format: functional, organism-based
SARS-CoV = assay: Antiviral activity against SARS coronavirus infected in primary HAE cells; format: functional, organism-based; conditions: Severe acute respiratory syndrome-related coronavirus
in vivo [3] = conditions: mouse
in vivo [4] = conditions: rhesus monkey, serum, iv

SMILES	EC50 (Feline coronavirus) [µM]	CC50 [1] [µM]	EC50 [2] [µM]	EC50 (SARS-CoV) [µM]	half-life (in vivo [3]) [min]	half-life (in vivo [4]) [min]
N#C[C@@]1(c2ccc3c(N)ncnn23)O[C@H](COP(=O)(O)OP(=O)(O)OP(=O)(O)O)[C@@H](O)[C@H]1O [RDV-TP]	0.78	> 100	0.86	0.18	–	–
CCC(CC)COC(=O)[C@H](C)N[P@](=O)(OC[C@H]1O[C@@](C#N)(c2ccc3c(N)ncnn23)[C@H](O)[C@@H]1O)Oc1ccccc1 [REMDESIVIR]	–	> 10	0.074	0.069	25	24
